Test results from patent publication US20060063711A1, “Use of sglt homolog” (priority 2002, published 2006).

How the values were obtained:
human SGLT homolog [1] = molecular target: T1, human SGLT homolog (Homo sapiens, UniProt Q2M3M2, I269M); test: substrate specificity, α-methyl glucose uptake test in human SGLT homolog-transfected COS7 cells; format: cell-based; parameters: expressed in transfected cells; host or cells: COS7 cells; details: sugar added at 0, 1 and 10 mM
T1 sequence (Q2M3M2 8-681 I269M limits assumed): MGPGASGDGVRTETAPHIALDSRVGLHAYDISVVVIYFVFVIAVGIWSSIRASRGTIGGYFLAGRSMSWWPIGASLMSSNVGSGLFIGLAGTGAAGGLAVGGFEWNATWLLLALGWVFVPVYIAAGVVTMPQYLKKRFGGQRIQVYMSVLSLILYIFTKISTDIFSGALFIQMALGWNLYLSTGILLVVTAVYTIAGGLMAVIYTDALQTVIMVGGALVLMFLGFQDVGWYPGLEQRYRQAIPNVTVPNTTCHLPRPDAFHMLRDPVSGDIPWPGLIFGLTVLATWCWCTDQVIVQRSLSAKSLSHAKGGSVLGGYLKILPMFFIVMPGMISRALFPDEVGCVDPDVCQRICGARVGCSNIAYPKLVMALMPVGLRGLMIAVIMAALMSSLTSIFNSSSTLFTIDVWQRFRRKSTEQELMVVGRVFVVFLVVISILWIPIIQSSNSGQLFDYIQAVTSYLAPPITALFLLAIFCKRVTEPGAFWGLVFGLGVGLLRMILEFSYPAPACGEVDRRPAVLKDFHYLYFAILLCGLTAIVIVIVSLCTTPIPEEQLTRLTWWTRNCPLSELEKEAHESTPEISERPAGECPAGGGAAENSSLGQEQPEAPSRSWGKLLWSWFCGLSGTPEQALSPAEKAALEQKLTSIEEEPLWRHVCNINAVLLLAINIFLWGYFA
Description: (§1) The human SGLT homolog or human SGLT1-transfected COS7 cells were prepared and the respective substrate specificities were examined. The α-methyl glucose uptake test was carried out in accordance with the procedures described in Am. J. Physiol., 270: G833-G843, 1996 and J. Clin. Invest., 93: 397-404, 1994. The cells were plated on 100 μl of DMEM medium containing 10% FBS charged in a 96-well plate in a cell density of 3×10^4 cells/well, followed by culturing overnight at 37° C. Each well was washed 3 times with a reaction buffer solution supplemented with 125 mM N-Methyl-D-Glucamine (1.2 mM KH2PO4, 2.5 mM CaCl2, 1.2 mM MgSO4, 4 mM Glutamine, 10 mM HEPES (pH 7.2), 0.1 mg/ml BSA) and further cultured for an hour in the same buffer solution to remove the glucose remained in the cells. Next, 150 mM NaCl was added to the reaction buffer solution above and glucose or galactose was added to the mixture in 0, 1 and 10 mM, respectively. Then 90 μl each of the thus prepared mixtures was added per well. […] After washing 3 times with 200 μl of chilled PBS, 100 μl each of liquid scintillator was added per well and the radioactivity of ^14C taken up into the cells was counted with a scintillation counter.

human SGLT1 [2] = molecular target: T2, human SGLT1 (Homo sapiens, UniProt P13866); test: substrate specificity, α-methyl glucose uptake test in human SGLT1-transfected COS7 cells; format: cell-based; parameters: expressed in transfected cells; host or cells: COS7 cells; details: sugar added at 0, 1 and 10 mM
T2 sequence (P13866 1-664): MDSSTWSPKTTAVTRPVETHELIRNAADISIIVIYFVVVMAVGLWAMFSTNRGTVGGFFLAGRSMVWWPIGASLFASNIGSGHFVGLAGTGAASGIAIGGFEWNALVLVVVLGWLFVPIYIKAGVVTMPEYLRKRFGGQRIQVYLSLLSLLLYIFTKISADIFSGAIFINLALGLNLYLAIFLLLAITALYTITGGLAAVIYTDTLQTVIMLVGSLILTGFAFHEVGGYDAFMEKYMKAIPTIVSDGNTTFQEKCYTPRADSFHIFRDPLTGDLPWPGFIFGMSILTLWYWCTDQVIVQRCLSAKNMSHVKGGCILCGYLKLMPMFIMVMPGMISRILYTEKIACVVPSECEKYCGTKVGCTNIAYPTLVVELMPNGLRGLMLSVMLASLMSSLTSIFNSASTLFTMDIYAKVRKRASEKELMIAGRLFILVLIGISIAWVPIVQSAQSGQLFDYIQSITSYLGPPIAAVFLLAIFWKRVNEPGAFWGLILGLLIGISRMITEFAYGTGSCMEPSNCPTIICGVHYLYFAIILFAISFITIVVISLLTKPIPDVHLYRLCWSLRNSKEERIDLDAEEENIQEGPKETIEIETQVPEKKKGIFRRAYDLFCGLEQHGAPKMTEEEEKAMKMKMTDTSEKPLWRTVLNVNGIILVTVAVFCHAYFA
Description: as §1

human SGLT homolog [3] = molecular target: T1, human SGLT homolog; test: kinetic analysis of glucose uptake in human SGLT homolog-transfected COS7 cells
Description: (§2) The human SGLT homolog or the human SGLT1-transfected COS7 cells were prepared and subjected to kinetic analysis of glucose uptake, respectively. […] The cells were plated on 100 μl of DMEM medium containing 10% FBS charged in a 96-well plate in a cell density of 3×10^4 cells/well, followed by culturing overnight at 37° C. […] Then 90 μl each of the thus prepared mixtures was added per well. In addition, 10 μl each of α-methyl glucose in a final concentration of 1 mM, which contained 0.02 μCi of [^14C]-α-methyl glucose (Amersham Pharmacia Biotech, Inc.), was added per well to carry out a glucose uptake reaction for an hour. After washing 3 times with 200 μl of chilled PBS, 100 μl each of liquid scintillator was added per well and the radioactivity of ^14C taken up into the cells was counted with a scintillation counter to determine Km and Vmax in the glucose uptake.

human SGLT1 [4] = molecular target: T2, human SGLT1; test: kinetic analysis of glucose uptake in human SGLT1-transfected COS7 cells
Description: as §2

[5] = read-out: Km in the glucose uptake, α-methyl glucose 0 to 20 mM, 150 mM NaCl
[6] = α-methyl glucose 0 to 20 mM, 150 mM NaCl

affinity (competition of α-methyl glucose uptake) (human SGLT homolog [1])	affinity (competition of α-methyl glucose uptake) (human SGLT1 [2])	Km (human SGLT homolog [3]; [5]) [mM]	Vmax in the glucose uptake (human SGLT homolog [3]; [6]) [nmol/hour/106 cells]	Km (human SGLT1 [4]; [5]) [mM]	Vmax in the glucose uptake (human SGLT1 [4]; [6]) [nmol/hour/106 cells]	Structure (SMILES)
little affinity	had affinity					O=C[C@H](O)[C@@H](O)[C@@H](O)[C@H](O)CO [galactose]
		7.9	8.0	1.8	3.9	COC1OC(CO)C(O)C(O)C1O (stereo not drawn) [α-methyl glucose]
